Like-named read-outs stand apart in the source and are kept apart here.
What was measured:
plasma triglycerides [1] = tested on: plasma triglycerides; set-up: method as in van der Hoorn et al. 2011; conditions: AZ876 high dose 20 µmol·kg−1·day−1, GW3965 at a similar dose; ref van der Hoorn et al. 2011; cited from earlier work
plasma triglycerides [2] = experiment: plasma TG induction in C57BL/6 mice vs plasma compound concentration (log-linear model); format: in vivo, mouse; conditions: for TG induction in plasma m (scaling factor) / TG induction in plasma C2, drug concentration corresponding to a twofold increase in TG levels: (% RSE); for TG induction in plasma Attributed class: mouse, in vivo
Experimental: Male C57BL/6JOlaHsd mice were retrieved from Harlan Laboratories (Horst, The Netherlands) around 7 weeks of age. […] Mice were given ad libitum access to water and standard rodent chow during the studies.
Compounds were given daily by oral gavage, 5 ml kg^−1, at doses ranging from 0.1 to 100 μmol kg^−1 of body weight for 4 days. Animals were terminated 3 h after the last dose.
(§1) At termination, the whole-blood volume was drawn from isoflurane-anesthetized mice via an incision in the carotid artery into EDTA blood tubes (S-Monovette®, EDTA KE/1.3 mL, Sarstedt, Nümbrecht, Germany or BD Microtainers®, Benton, Dickinson and Company, Franklin Lakes, New Jersey, USA). Blood samples were placed on ice and centrifuged within an hour (15 min, 2500 × g, 4 °C or 5 min, 16000 × g, 4 °C). The plasma was then dispensed in separate tubes and kept at −80 °C for later analysis of compound concentration and TG levels. For the analysis of intestinal Abca1 transcript levels, a 3–5-mm long segment of the duodenum was excised and cleared from any gut contents. Tissues were instantly snap frozen in liquid nitrogen and stored at −80 °C.
Plasma triglyceride levels were analyzed by using the Triglycerides/Glycerol Blanked reagent kit (Roche Diagnostics GMBH, Mannheim, Germany). Samples were measured on an ABX Pentra 400 instrument (Horiba Medical, Irvine, California, USA) or Cobas Mira plus instrument (Roche Diagnostics Corporation, Indianapolis, USA). […] Absorbance was measured by using a Tecan Infinite M200 plate reader (Tecan Austria GmbH, Salzburg, Austria).
About 25 µL of plasma was precipitated with 150 µL of cold acetonitrile containing 0.2% formic acid. […] Sample analysis was performed by using a reversed-phase high-pressure liquid chromatography system coupled to a Quattro Ultima triple-quadrupole mass spectrometer (Waters, UK). A rapid 2-min 4–90% (vol/vol) acetonitrile (containing 0.2% formic acid) gradient was used for chromatographic separation.
To rank the compounds, the drug concentration (C2) needed to generate a twofold increase in plasma TG was estimated by rearranging Eq. (2):3 C2=exp^2fold−BL−1/m^1/γ

Abca1 mRNA in intestine = experiment: intestinal Abca1 mRNA induction in C57BL/6 mice (Emax model); format: in vivo, mouse; conditions: for ED50: Mus musculus
Experimental: All procedures involving animals were conducted in accordance with accepted standards of good animal practice and approved by the respective local animal ethics committees (Gothenburg region Local Ethics Review Committee on Animal experiments and University of Virginia Animal Care and Use Committee). Male C57BL/6JOlaHsd mice were retrieved from Harlan Laboratories (Horst, The Netherlands) around 7 weeks of age. In the studies with BMS-852907, male 8-week C57BL/6J mice (Jackson Laboratories) were used. Mice were given ad libitum access to water and standard rodent chow during the studies.
Solid compounds were solubilized in PEG400/Ethanol/Solutol/Water solution (36.3/9.1/4.6/50%). Compounds were given daily by oral gavage, 5 ml kg^−1, at doses ranging from 0.1 to 100 μmol kg^−1 of body weight for 4 days. Animals were terminated 3 h after the last dose.
as §1
Snap-frozen intestinal tissues were quickly disrupted in QIAzol® (Qiagen, Hilden, Germany) or PureZOL™ (Bio-Rad Laboratories, Hercules, California, USA) by using a bead tissue homogenizer. Lysates were mixed with chloroform and centrifuged at 6000 × g for 15 min at 4 °C. Total RNA was purified from the upper aqueous phase on the ABI PRISM™ 6100 Nucleic Acid PrepStation (Applied Biosystems, Foster City, USA) or by using the RNeasy kit® (QIAGEN Sciences Inc., Germantown, Maryland, USA) including on-column DNase treatment by using the respective manufacturer’s protocol and reagents. Concentration of total RNA was determined on a NanoDrop™ ND-100 Spectrophotometer (Saveen Werner, Lögstrup, Sweden). The RNA templates were transferred to cDNA by reverse transcription by using the High-Capacity cDNA Reverse Transcription Kit (Applied Biosystems, Foster City, USA) according to the manufacturer’s protocol. Mouse ATP-binding cassette subfamily A member 1 (Abca1) was analyzed by using the forward primer 5′-[…]-3′, reverse primer 5′-[…]-3′, and the dual-labeled probe 5′-6FAM-[…]-TAMRA-3′. Mouse ribosomal protein large P0 (Rplp0, 36b4) was analyzed by using the forward primer 5′-[…]-3′, reverse primer 5′-[…]-3′, and the FAM-labeled probe 5′-[…]-TAMRA-3′. In the study with BMS-852907, RT-qPCR reactions were carried out in separate triplicate wells for Abca1 and Rplp0, respectively, by using 20 ng of cDNA template, 385 nM of the above-mentioned primers, and iQ™ SYBR Green Supermix (Bio-Rad, Hercules, California, USA) on a Bio-Rad MyiQ instrument (Bio-Rad, Hercules, California, USA). In the other studies, 400 nM Abca1 forward and reverse primers, 200 nM Abca1 probe, 200 nM Rplp0 forward and reverse primers, and 100 nM Rplp0 probe were mixed with 15 ng of cDNA template and TaqMan™ Gene Expression Master Mix (Applied Biosystems, Foster City, USA). The RT-qPCR reactions were performed on a 7500 Real-time PCR system (Applied Biosystems, Foster City, USA). Cycle threshold values (Ct) were retrieved from the instrument software. Relative changes in mRNA expression were calculated by using the comparative cycle method (2^−ΔΔCt). […]

[3] = po, read-out: Abca1 mRNA induction in intestine Attributed class
[4] = oral gavage daily for 4 days, C57BL/6 mice, (% RSE), read-out: Abca1 mRNA induction in intestine ED50

Row | Structure (SMILES) | increase of plasma triglyceride levels (plasma triglycerides [1]) [%] | TG induction in plasma m (scaling factor) (plasma triglycerides [2]) | TG induction in plasma Attributed class (plasma triglycerides [2]) | TG induction in plasma C2, drug concentration corresponding to a twofold increase in TG levels (plasma triglycerides [2]) | ED50 (Abca1 mRNA in intestine; [3]) [µmol/kg] | ED50 (Abca1 mRNA in intestine; [4]) [µmol/kg] | class of intestinal Abca1 induction (Abca1 mRNA in intestine)
1 | CC(C)(C)N1C(=O)C(Nc2ccc(N3CCCCC3)cc2)=C(c2ccccc2)S1(=O)=O [AZ876] | 110 | 3.44 (49) | Lipogenic | 0.269 (93) μM | ≤ 11.3 | 0.956 | –
2 | O=C(O)Cc1ccc(COc2cccc(-c3c(Cc4ccccc4)cnc4c(C(F)(F)F)cccc34)c2)cc1 [WAY-254011, reference compound] | – | 1.94 (4) | Lipogenic | 0.794 (8) μM | ≤ 11.3 | < 30 | high ABCA1

Source: publication PMC6874530, “Structural analysis identifies an escape route from the adverse lipogenic effects of liver X receptor ligands” (Communications Biology, 2019)
